The structures appear in SMILES notation. Values after ≈ are worked out from the molar mass of the structure shown. Like-named read-outs stand apart in the source and are kept apart here.

Data set [1] is described as follows: physchem. The conditions noted are these: for Solubility / solubility at 1 h / solubility at 4 h / solubility at 24 h: RT; for Solubility: listed as WO2013184572A1 Form A; for solubility at 1 h / solubility at 4 h / solubility at 24 h: thermodynamic from solid. The protocol:
2. Add 3 mL of bio-relevant medium into each vial.
3. Cap the vials and keep all the suspension samples stirring at RT (room temperature) using a rolling incubator at a rate of 25 r/min.
4. Sample at 1 h, 4 h and 24 h respectively. About 0.6 mL aliquot of the suspension is transferred per time from solubility vial into a centrifuge filtration tube (pore size of 0.45 μm).
5. Centrifuge filtration tubes at a rate of 8500 rpm for 3 minutes at RT, collect 0.2 mL of supernatant for HPLC quantification determination and collect the rest of solution for pH measurement, and separate the solid for XRPD characterization.

For data set [2] the following is noted: cited from earlier work.
For data set [3] the following is noted: DVS, 25° C. The protocol: Dynamic Vapor Sorption (DVS)
Dynamic Vapor Sorption (DVS) was measured via a SMS (Surface Measurement Systems) DVS Intrinsic. The relative humidity at 25° C. were calibrated against deliquescence point of LiCl, Mg(NO3)2 and KCl. Typical Parameters for DVS test are listed below.

For data set [4] the following is noted: dish open, 180 days; for Chemical purity: HPLC; for Final form: XRPD. The protocol:
The chemical and physical stabilities of the samples were evaluated by high performance liquid chromatography (HPLC) and XRPD.

A word on the Solubility: it is how much of the substance goes into solution per volume. Consider `C=CC(=O)N1CCC[C@@H](n2nc(-c3ccc(Oc4ccccc4)cc3)c3c(N)ncnc32)C1` [Form A, 1-[(3R)-3-[4-amino-3-(4-phenoxyphenyl)-1H-pyrazolo [3,4-d]pyrimidin-1-yl]piperidin-1-yl]prop-2-en-1-one, reference compound], for which the Solubility in data set [1] (FeSSIF, time point 1 h) was found to be 100 µg/mL (≈ 227 µM); in data set [1] (FeSSIF, time point 4 h) it was 110 µg/mL (≈ 250 µM); in data set [1] (FeSSIF, time point 24 h), 130 µg/mL (≈ 295 µM); in data set [1] (SGF, time point 1 h) it was 360 µg/mL (≈ 817 µM); in data set [1] (SGF, time point 4 h), 390 µg/mL (≈ 885 µM); in data set [1] (SGF, time point 24 h), 380 µg/mL (≈ 863 µM). In data set [2] (pH=8), the Solubility was 13 µg/mL (≈ 29.5 µM).

Take `C=CC(=O)N1CCC[C@@H](n2nc(-c3ccc(Oc4ccccc4)cc3)c3c(N)ncnc32)C1` [Form B, 1-[(3R)-3-[4-amino-3-(4-phenoxyphenyl)-1H-pyrazolo [3,4-d]pyrimidin-1-yl]piperidin-1-yl]prop-2-en-1-one]: the Solubility in data set [2] (pH=7.42) was 9.6 µg/mL (≈ 21.8 µM).

As a reminder, the solubility is the concentration that dissolves in the medium under given conditions. Low values mean a poorly soluble substance, high ones a readily soluble substance. For the compound `C=CC(=O)N1CCC[C@@H](n2nc(-c3ccc(Oc4ccccc4)cc3)c3c(N)ncnc32)C1` [Form I, 1-[(3R)-3-[4-amino-3-(4-phenoxyphenyl)-1H-pyrazolo [3,4-d]pyrimidin-1-yl]piperidin-1-yl]prop-2-en-1-one], in data set [1] (FeSSIF and SGF), the “Solubility in comparison to crystalline Form A (WO2013184572A1)” value was “higher solubility”. Further, the solubility at 1 h was 150 µg/mL (≈ 341 µM) in data set [1] (fed state simulated intestinal fluid (FeSSIF), fessif, time point 1 h) and 500 µg/mL (≈ 1140 µM) in data set [1] (simulated gastric fluid (SGF), simulated gastric fluid, SGF, time point 1 h). Also, the solubility at 4 h in data set [1] (fed state simulated intestinal fluid (FeSSIF), fessif, time point 4 h) is 160 µg/mL (≈ 363 µM); in data set [1] (simulated gastric fluid (SGF), simulated gastric fluid, SGF, time point 4 h), 500 µg/mL (≈ 1140 µM). The solubility at 24 h was 160 µg/mL (≈ 363 µM) in data set [1] (fed state simulated intestinal fluid (FeSSIF), fessif, time point 24 h) and 480 µg/mL (≈ 1090 µM) in data set [1] (simulated gastric fluid (SGF), simulated gastric fluid, SGF, time point 24 h). For the same compound, the “Water uptake under 80% RH” value in data set [3] (80% RH) is recorded as 0.19%; in data set [3] (80% RH, listed as Ibrutinib Form I), 0.19%. Also, the “Water uptake under 95% RH” value in data set [3] (95% RH) came out at 0.48%. Besides, the “Hygroscopicity (European pharmacopoeia criteria)” value in data set [3] (80% RH) is on record as “non-hygroscopic”. In addition, the Chemical purity in data set [4] (25° C./60% RH) and in data set [4] (40° C./75% RH) was 98.98% throughout. The Final form result in data set [4] (25° C./60% RH) and in data set [4] (40° C./75% RH) was “Form I” each time.
